Laboratory results as given in patent KR20080021588A, “메카노 성장 인자 펩티드 및 이들의 용도” (유씨엘 비즈니스 피엘씨, priority 2005, dated 2006).
Where no end group is shown, it is not given here.

Key:
[1] = test system: C2C12 근육 세포; assay: C2C12 cell proliferation assay (Alamar Blue); format: cell-based, mouse; settings: 2, 5, 50 and 100 ng/ml; 2000 cells/well; medium with IGF-I 2 ng/ml; 36 h; vs medium-only control
[2] = test system: C2C12 근육 세포; assay: C2C12 cell proliferation assay (BrdU incorporation); format: cell-based, mouse; settings: 0.1, 1, 10 and 100 ng/ml; 500 cells/well; 24 h stimulation, 5 h BrdU
[3] = test system: mdx 마우스의 근이영양성 근육; assay: Tetanic force of dystrophic muscle after intramuscular injection in mdx mice; format: in vivo, mouse; settings: i.m. twice weekly for 3 weeks
[4] = test system: 경색된 양 심장; assay: Cardioprotection after myocardial infarction in sheep (ejection fraction by echocardiography); format: in vivo; settings: intracoronary injection 15 min after infarction, day 6 vs day before procedure
[5] = test system: 래트 기관형적 해마 배양물; assay: In vitro neuroprotection against TBH oxidative stress in organotypic hippocampal slices (PI staining); format: cell-based, Wistar rat; settings: 100 ng/ml
[6] = test system: 뇌 허혈의 게르빌루스쥐 모델; assay: Neuroprotection in gerbil model of brain ischaemia (surviving CA1 neurons); format: in vivo, Mongolian gerbil; settings: 25 µg injection, 7 days after ischaemic insult
[7] = test system: 정상 두개안면 (교근) 초대 배양물; assay: Myogenic progenitor (desmin-positive) cell proliferation, normal craniofacial muscle primary culture; format: cell-based, human; settings: normal craniofacial (masseter); peptide 10 ng/ml alone; untreated 49.8±2.4%
[8] = test system: 정상 하지 (사두근) 초대 배양물; assay: Myogenic progenitor (desmin-positive) cell proliferation, normal limb muscle primary culture; format: cell-based, human; settings: normal limb (quadriceps); peptide 10 ng/ml alone; untreated 38.4±2.5%
[9] = test system: 선천성 근이영양증 (CMD)에서 유래된 초대 배양물; assay: Myogenic progenitor (desmin-positive) cell proliferation, CMD muscle primary culture; format: cell-based, human; settings: peptide 10 ng/ml alone, untreated 10.4±1.7%
[10] = test system: ALS 사지; assay: Myogenic progenitor (desmin-positive) cell proliferation, ALS muscle primary culture; format: cell-based, human; settings: peptide 10 ng/ml alone, untreated 4.8±1.1%
[11] = test system: FSHD 사지; assay: Myogenic progenitor (desmin-positive) cell proliferation, FSHD muscle primary culture; format: cell-based, human; settings: peptide 10 ng/ml alone, untreated 11.7±1.3%
[12] = test system: 초대 인간 근육 세포 배양물; assay: Creatine phosphokinase (CPK) assay of myogenic differentiation / myotube formation; format: cell-based, human; settings: peptide alone in differentiation medium, 48 h; IGF-I at 10 ng/ml
[13] = test system: HSMM 세포; assay: Human primary cell (HSMM) proliferation assay (BrdU incorporation); format: cell-based; settings: 48 h; A5 at doses up to 10 ng/ml (P < 0.1); IGF-I alone at any dose
[14] = test system: 단핵성 근육모세포 (수반 세포); assay: Biological activity: induction of mononucleated myoblast replication (Alamar Blue); format: cell-based; set-up: key to biological activity score (scale 0 to 3): 0: 6시간에서 측정가능한 세포 수 증가 없음; 1: 4시간에서 유의한 세포 수 증가; 2시간에서 유의한 세포 수 증가; 3: 1시간에서 유의한 세포 수 증가; settings: cell number by Alamar Blue

GSTFEEHK [DMGF]
induction of C2C12 cell proliferation (Alamar Blue fluorescence) [1]: 세포 증식을 유도하였다

GSTFEEHK [펩티드 A8]
induction of C2C12 cell proliferation (BrdU incorporation) [2]: 세포 증식을 유도하였다

GSTFEERK [펩티드 A2]
induction of C2C12 cell proliferation (BrdU incorporation) [2]: 세포 증식을 유도하였다

IGF-I: IGF-I receptor binding domain encoded by exons 3 and 4, about 70 amino acids; from PeproTech or Sigma-Aldrich
increase in tetanic force of dystrophic muscle [3]: ~5 %
effect on ejection fraction and percentage of viable myocardium after MI [4]: 더욱 작은 효과
protection against TBH-induced cell death ([5]; TBH 3 h, CA1 region, 24 h): 72 %
time over which the neuroprotective effect was marked ([5]; cell death assessed 24 h and 48 h after start): ≤ 24 시간
surviving CA1 neurons as % of control neuron number, side not stated [6]: 15.8 %
surviving CA1 neurons, side not stated ([6]; n=5): 19.2 ± 7.3 개
desmin-positive cells as % of total (DAPI-positive) cells [7]: 58.4±4.2 %
desmin-positive cells as % of total (DAPI-positive) cells [8]: 47.1±3.5 %
desmin-positive cells as % of total (DAPI-positive) cells [9]: 13.2±1.7 %
desmin-positive cells as % of total (DAPI-positive) cells [10]: 4.7±1.4 %
desmin-positive cells as % of total (DAPI-positive) cells [11]: 14.1±1.6 %
effect on primary myoblast differentiation and myotube formation (CPK) [12]: 근관 형성을 명백하게 자극한다
induction of C2C12 cell proliferation (Alamar Blue fluorescence) [1]: 통계학적으로 상이하였다
effect on HSMM proliferation (BrdU incorporation), used alone [13]: 유의한 효과가 없었다

PSTNKNTKSQARKGSTFEEHK [짧은 펩티드 3, Arg14→Ala, three N-terminal amino acids removed]
biological activity score (scale 0 to 3) [14]: 0

TNKNTKSQARKGSTFEEHK [짧은 펩티드 4, Arg14→Ala, five N-terminal amino acids removed]
biological activity score (scale 0 to 3) [14]: 0

YQPPATNKNTKSQRRKGSTFEEHK [펩티드 2]
biological activity score (scale 0 to 3) [14]: 1

YQPPSTNKNTKAQRRKGSTFEEHK [펩티드 3]
biological activity score (scale 0 to 3) [14]: 3

YQPPSTNKNTKSQAAKGSTFEEHK [펩티드 6]
biological activity score (scale 0 to 3) [14]: 0

YQPPSTNKNTKSQARKGSTF [짧은 펩티드 2, Arg14→Ala, four C-terminal amino acids removed]
biological activity score (scale 0 to 3) [14]: 0

YQPPSTNKNTKSQARKGSTFEE [짧은 펩티드 1, Arg14→Ala, two C-terminal amino acids removed]
biological activity score (scale 0 to 3) [14]: 1

YQPPSTNKNTKSQARKGSTFEEHK [펩티드 5]
biological activity score (scale 0 to 3) [14]: 2

YQPPSTNKNTKSQRRKGATFEEHK [펩티드 4]
biological activity score (scale 0 to 3) [14]: 2

YQPPSTNKNTKSQRRKGSTFEEHK [펩티드 1, human Ec peptide variant with His instead of Arg at penultimate position; no PEG, no L-D conversion]
biological activity (in words) [14]: 활성을 거의 또는 전혀 나타내지 않았다
